{
  "source": "patent US4087417A",
  "about": "“Hexapeptides and methods for their production” (Parke, Davis & Company, priority 1976, dated 1978)",
  "system": "LRF (luteinizing hormone release factor) induced luteinizing hormone (LH) release",
  "assay": "In vitro LRF antagonist test in rat anterior pituitary cell cultures",
  "assay_type": "cell-based",
  "source_text": "Hexapeptides of this invention were screened for LRF antagonist activity in vitro using rat anterior pituitary cell cultures as described by Vale et. al. [Endocrinology, 91, 562 (1972)]. The inhibition of LRF (luteinizing hormone release factor) induced luteinizing hormone (LH) release into the culture medium is the endpoint of this in vitro bioassay.",
  "key": {"[1]": {"settings": "compound 1×10^-7 molar, run with LRF Control 3.5×10^-10 molar"}, "[2]": {"settings": "compound 2×10^-7 molar, run with LRF Control 3.5×10^-10 molar"}, "[3]": {"settings": "compound 3.5×10^-7 molar, run with LRF Control 3.5×10^-10 molar"}, "[4]": {"settings": "compound 6×10^-7 molar, run with LRF Control 3.5×10^-10 molar"}, "[5]": {"settings": "compound 6×10^-8 molar, run with LRF Control 3.5×10^-10 molar"}, "[6]": {"settings": "compound 1×10^-6 molar, run with LRF Control 2.5×10^-10 molar"}},
  "data": [
    {"substance": "N^α -t-Butoxycarbonyl-L-tryptophyl-N^im -benzyl-L-histidyl-O-benzyl-L-seryl-O-benzyl-L-tyrosyl-L-prolyl-D-alanine N-ethylamide", "values": [
      {"measurement": "% LH Release Inhibition", "setting": "[1]", "result": 49, "unit": "%"},
      {"measurement": "LH Value", "setting": "[1]", "result": 27.52, "unit": "ng/mL"},
      {"measurement": "% LH Release Inhibition", "setting": "[2]", "result": 93, "unit": "%"},
      {"measurement": "LH Value", "setting": "[2]", "result": 14.63, "unit": "ng/mL"},
      {"measurement": "% LH Release Inhibition", "setting": "[3]", "result": 104, "unit": "%"},
      {"measurement": "LH Value", "setting": "[3]", "result": 11.46, "unit": "ng/mL"},
      {"measurement": "% LH Release Inhibition", "setting": "[4]", "result": 106, "unit": "%"},
      {"measurement": "LH Value", "setting": "[4]", "result": 10.90, "unit": "ng/mL"},
      {"measurement": "% LH Release Inhibition", "setting": "[5]", "result": 11, "unit": "%"},
      {"measurement": "LH Value", "setting": "[5]", "result": 38.53, "unit": "ng/mL"}
    ]},
    {"substance": "LRF Control: luteinizing hormone releasing factor, also referred to as luteinizing hormone releasing hormone, LH-RH; stimulates secretion of luteinizing hormone (QHWSYGLRPG; Gonadoliberin-1; UniProt P01148 24-33, looked up) [reference compound]", "values": [
      {"measurement": "LH Value", "setting": "LRF alone 2.5×10^-10 molar (first run)", "result": 38.98, "unit": "ng/mL"},
      {"measurement": "LH Value", "setting": "LRF alone 3.5×10^-10 molar (second run)", "result": 41.70, "unit": "ng/mL"}
    ]},
    {"substance": "N^α -t-Butoxycarbonyl-L-tryptophyl-N^im -benzyl-L-histidyl-O-benzyl-L-seryl-O-benzyl-L-tyrosyl-L-prolyl-D-alanine methyl ester", "values": [
      {"measurement": "% LH Release Inhibition", "setting": "[6]", "result": 85, "unit": "%"},
      {"measurement": "LH Value", "setting": "[6]", "result": 11.04, "unit": "ng/mL"}
    ]}
  ]
}
